Row | melting point [°C] | SMILES
1 | 136 to 138 | COC(=O)c1cc(C)cc2c1OCc1ccccc1C2C(=O)Nc1c(C(C)C)cccc1C(C)C (centres undefined)
2 | 184 to 186 | CNS(=O)(=O)c1cn(C)c2c(OC)c(OC)c(OC)cc2c1=O
3 | 196 to 198 | CN1C(=O)C2(COc3cc4c(cc32)OCCO4)c2c(NC(=O)C3CCCC3)cccc21 (centres undefined)
4 | 73 | CN1CC(c2cc3ccccc3o2)CC1=O (centres undefined)
5 | 138 | CNC(=O)c1cc(C(=O)c2ccccc2)ccc1[N+](=O)[O-]
6 | 106 to 107 | CCC(=O)O[C@@H]1[C@@H](c2ccccc2)Nc2c(ccn3c(C)c(C)nc23)[C@H]1OCCOC
7 | 233 to 236 | O=C(O)c1cn(C2CC2)c2cc(N3CCC(c4cccnc4)C3)c(F)cc2c1=O (centres undefined)
8 | 155 to 157 | C[C@@H](c1ccc(-c2ccc(C#N)cn2)cc1)N1CC[C@](CC(C)(C)O)(c2ccc(F)cc2)OC1=O
9 | 165 to 167 | COc1ccc(OC)c2c(Cl)c(C#N)cnc12
10 | 152 to 153 | CCN1CCNC(=O)C1c1ccc(Nc2nc(Br)cn(C)c2=O)cc1 (centres undefined)
11 | 100 to 102 | COC(=O)CC(c1ccc(OC)c(OC)c1)N1C(=O)C2C=CCCC2C1=O (centres undefined)
12 | 68 to 79 | COc1ccc(Nc2nc(Nc3cc4c(cc3OC)CCN(CC(=O)N(C)C)CC4)ncc2Cl)c(S(=O)(=O)C(C)C)c1
13 | 148 to 150 | CC(=O)n1c(=O)n(-c2ccc(Cl)cc2)c(=O)n1C(C)=O
14 | 239 to 240 | O=C1SCC(O)=C1Cc1ccc(Cl)c(Cl)c1
15 | 120 to 121 | CCOC(=O)Cn1cc(C(=O)NCc2ccc(Cl)cc2Cl)c(OCC)n1
16 | 109 to 111 | COc1cc(C)c(C(=O)c2c(Cl)cncc2Cl)c(OC)c1OC
17 | 179 | Cn1c(C(F)(F)F)cc(=O)n(Nc2cccc(Cl)c2Cl)c1=O
18 | 205 to 208 | Cn1cc(C(=O)NCc2ccc(Cl)cc2)c(=O)c2cc(I)ccc21

Row | melting point [°C] | SMILES
19 | 143 to 145 | CCOC(=O)N1Cc2c(n(-c3ccc(F)cc3)c3ccc(F)cc23)C1
20 | 123 to 125 | CCCCOc1ccccc1-c1ncc(C(=O)OCC)c(=O)[nH]1
21 | 228 to 229 | COc1ccc2cnc(Nc3ccc(N4CCNCC4)c(F)c3)nc2c1C1CCCC1
22 | 159 to 160 | CC(=O)NC[C@H]1CN(c2ccc(N3CCC(=CC#N)CC3)c(F)c2)C(=O)O1
23 | 90 to 91 | CCOC(=O)COc1ccc(C(=O)c2c(Br)cnn2CC)c(Cl)c1Cl
24 | 59 to 60 | CCOC(=O)C1C(=O)C=C(OC(C)OCC)CC1c1ccc(C)cc1 (centres undefined)
25 | 63 to 65 | COC(=O)C(Cc1cc(OC)cc(OC)c1)c1ccc(O)cc1 (centres undefined)
26 | 157 | CC(C)(C)NC(=O)Oc1ccc(-c2nn(C3CCCC3)c3c(F)cccc23)cc1
27 | 136 to 138 | CC(C)c1ccc(C(=O)Cc2ccsc2)c(C(C)C)c1OS(N)(=O)=O
28 | 214 to 216 | O=C(NC(Cc1ccccc1Cl)C(=O)N1CCSC1)c1cc2cc(Cl)ccc2[nH]1 (centres undefined)
29 | 268 to 272 | Cc1ccc(C(=O)C2=C(O)C(=O)N(c3ccc(C)nn3)C2c2ccc(OC(C)C)cc2)cc1 (centres undefined)
30 | 158 to 160 | COc1ccc(C2=NN(C3CCN(S(=O)(=O)c4cccc(C#N)c4)CC3)C(=O)C(C)(C)C2)cc1OC
31 | 208 to 209 | CCC(C)Nc1cc(-c2ccc(Cl)cc2)nc2nn(C)cc12 (centres undefined)
32 | 213 to 214 | CC1Nc2cc(N(C)C(=O)c3ccc(-c4ccccc4)cc3)ccc2N1C (centres undefined)
33 | 270 | Nc1cc(F)ccc1C(=O)C1CCN(CCn2c(=O)[nH]c3ccccc3c2=O)CC1
34 | 118 to 120 | COc1cc(OC)cc(N2CCN(C(=O)N(CC3CC3)c3cc4ccccc4nc3OC)CC2)c1
35 | 120 to 121 | COc1cc(C2OCCO2)cc(I)c1O
36 | 153 to 155 | Cc1cc(Cc2ccsc2)c(NC(=O)OCc2ccccc2)c(=O)n1CC(=O)O

The remaining lines, values behind:

Row | SMILES | melting point [°C]
37 | COC(=O)C(NS(=O)(=O)c1ccc(-c2ccc(NC(=O)c3oc4cccc(CO[Si](C)(C)C(C)(C)C)c4c3C)cc2)cc1)C(C)C (centres undefined) | 204 to 206
38 | CNc1nc2ccccc2n2cnnc12 | > 300
39 | CCCCS(=O)(=O)N(CCN(CC)CC)c1ccc(C(Cl)=C(c2ccccc2)c2ccccc2)cc1 | 65 to 70
40 | O=C(O)c1c(Cl)cc(Cl)c(Cl)c1C(=O)O | 150 to 153
41 | CC1=C(CCCl)C(=O)C2Sc3ccccc3N2C1 (centres undefined) | 114
42 | NC(=O)c1ccc(N2CCN(CCC3C=Cc4ccccc43)CC2)cc1 (centres undefined) | 207
43 | CC(C)C(=O)c1ccc(N2CCOCC2)cc1 | 75 to 77
44 | Cc1nc2c(-c3ccc(-c4ccccc4)cc3)nc3ccc(F)cc3c2c(=O)o1 | 188 to 189
45 | CC(=O)Nc1ccccc1N1CCOCC1 | 140 to 141
46 | Cc1nc2cccc3n(CCCCCNS(=O)(=O)CC(F)(F)F)c(=O)c1n23 | 143 to 145
47 | CCN(CC)C1CCN(c2cccc(-c3cnn4c(N)c(-c5ccc(F)cc5)c(C)nc34)c2)CC1 | 208 to 210
48 | CS(=O)(=O)c1sccc1SCc1ccccc1 | 95 to 97
49 | Cc1cc(OC(=O)N[C@@H](CCC(=O)O)C(=O)O)ccc1N(CCCl)CCCl | 160 to 162
50 | C[C@@H]1CC[C@@H](C(C)(C)c2ccccc2)[C@@H](Oc2cn(C(c3ccccc3)c3ccccc3)c(=O)o2)C1 | 118 to 120
51 | C#CCn1nnc(SC(c2ccccc2)c2ccccc2)n1 | 85 to 86
52 | CN1CCN(c2ccc(C#N)nn2)CC1 | 149
53 | COC(=O)c1ccc(CNC(=O)C2Cc3ccccc3N2S(=O)(=O)c2ccc(-c3ccc(F)cc3)cc2)cc1 (centres undefined) | 66 to 73
54 | CC(=O)OCC(=O)COC(C)=O | 45.5 to 46.6
55 | Cn1c(SC(F)F)n[nH]c1=O | 87
56 | CCn1nc2c(N)nc3ccccc3c2c1CC1(F)CCN(C(=O)NC(C)C)CC1 | 205 to 207
57 | CC(C)c1cccc(C(C)C)c1NC(=O)[C@H](CCc1ccccc1)NC(=O)OC(C)(C)C | 193 to 197

Row | SMILES | melting point [°C]
58 | O=C(Nc1cccc([N+](=O)[O-])c1)c1ccccc1SSc1ccccc1C(=O)Nc1cccc([N+](=O)[O-])c1 | > 270
59 | C#Cc1cn(C2CC(O)C(CO)O2)c(=O)[nH]c1=O (centres undefined) | 175
60 | N#Cc1cc(Cl)ccc1Oc1cc(N2CCOCC2)c(F)cc1O | 149 to 151
61 | O=C(O)CC(c1ccc(OCc2ccc3ccccc3n2)cc1)c1ccc(OCc2ccc3ccccc3n2)cc1 | 94 to 111
62 | Clc1ccc(SC(CCc2ccccc2)Cn2ccnc2)cc1Cl (centres undefined) | 145 to 147
63 | O=C(NCCCCCCCCCCCCO)OC1CCN(C(=O)Oc2ccc(Oc3ccccc3)cc2)CC1 | 75 to 76
64 | CCC1(CCSC(C)=O)C(=O)N2CCCC(C(=O)OC(C)(C)C)N2C1=O (centres undefined) | 82 to 84
65 | Cc1oc(-c2ccco2)nc1COc1ccc(COc2nn(Cc3ccccc3)cc2C(=O)O)cn1 | 151 to 152
66 | O=C(C1CCN(c2ccncn2)CC1)N1CCN(Cc2ccccc2)CC1 | 107 to 108
67 | O=C(Nc1ccc(F)cc1F)Nc1oc(=O)c2ccc(Cl)cc2c1-c1ccccc1 | 196 to 197
68 | OCCCNc1nc(-c2ccc(Cl)c(Cl)c2)nc2ccccc12 | 164 to 166
69 | CS(=O)(=O)Nc1ccc(Sc2cnc(N)s2)cc1 | 185 to 187
70 | N#Cc1ccc(NC(=S)NCc2cccnc2)cc1 | 181
71 | CC(=O)N(C)Cc1ccc(F)cc1 | 48 to 54
72 | CCOC(=O)/C=C(C)/C=C/C=C(\C)C1=Cc2cc(C)cc(C)c2OC1 | 122
73 | O=C(N[C@H](CC1CCCCC1)CN1CCN(c2ncccn2)CC1)C1CCCCC1 | 121 to 123
74 | C#CCOc1ccccc1-n1cnc2cc(Nc3nnc(C)c4ccccc34)ccc21 | 88 to 90
75 | CC(=Cc1ccccc1)S(=O)(=O)NC(=O)N1CCCCC1 | 159 to 161
76 | CCOCc1nc(N)c(N=O)c(=O)[nH]1 | 163 to 165
77 | O=C(c1ccccc1F)c1cc2c(c(Cl)c1Cl)OC(C(=O)O)C2 (centres undefined) | 180 to 181
78 | Brc1ccc2nc(N3CCOCC3)nn2c1 | 136

Row | SMILES | melting point [°C]
79 | NC(=O)c1ncccc1OCCNCc1ccccc1 | 110 to 112
80 | CC1c2ccccc2-c2ccc(F)cc2N1S(=O)(=O)c1ccc(O)cc1 (centres undefined) | 162 to 165
81 | CNC(=S)N1Cc2ccccc2C2(Cc3ccccc3O2)C1 (centres undefined) | 165
82 | Cc1cc2c(cc1Cl)nc(Br)n2[C@@H]1OC[C@@H](O)[C@@H](O)[C@H]1O | 150
83 | O=C(c1ccc(F)cc1)c1cnn2c(-c3ccncc3)ccnc12 | 214 to 216
84 | CC(C)(C)c1ccccc1-n1cnnc1C(F)(F)F | 120
85 | CC1(C)C(=O)Nc2cc3[nH]c(NC(=O)c4ccncc4)nc3cc21 | > 300
86 | C=CCN(CC=C)c1nc(NC(=O)Cc2ccsc2)n2oc(=O)nc2n1 | 159 to 161
87 | O=C(NC(=O)c1c(Cl)cccc1Cl)Nc1ccc(-c2ccc(Cl)cc2)nc1 | 225 to 229
88 | CCC(CC)Nc1cc(C)nc(Sc2c(C)cc(C)cc2C)c1C | 108 to 110
89 | Oc1cc(O)n2nc(-c3ccc(F)cc3)c(-c3ccncc3)c2n1 | > 250
90 | C#CCOC(=O)c1ccc(O)cc1O | 104 to 106
91 | CCCCOc1cccc(OCCBr)c1 | 32 to 34
92 | O=C(NC(=O)c1c(F)cccc1F)Nc1ccc2c(c1)C(F)(F)OC(F)(F)O2 | 231
93 | FC(F)c1nc2ccccc2n1-c1nc(Nc2cncnc2)nc(N2CCOCC2)n1 | 290 to 292
94 | OCc1ccccc1OCc1ncc2ccccc2n1 | 92 to 96
95 | O=C(CBr)c1ccc(OC2CCCCO2)cc1 (racemic) | 102 to 104
96 | Cc1ccc(S(=O)(=O)N2C(=O)N(c3ccc(Cl)cc3)C(C)(O)C2O)cc1 (centres undefined) | 60 to 70
97 | CC1(C)CC(=O)Nc2cc3nc(-c4cccc(Cl)c4)[nH]c3cc21 | 190 to 193
98 | Cc1ncc([N+](=O)[O-])n1CCN1C(=O)NC2(C1=O)C1CC3CC(C1)CC2C3 (centres undefined) | 276 to 280
99 | CCC(NC(=O)NS(=O)(=O)C=Cc1ccccc1)C(=O)O (centres undefined) | 150 to 152

Reference: a melting point compilation (Tetko et al.; mined from patent text by program, amines drawn as free bases though some values may be those of a salt)
